# Measured values as given in US9289412B2, “Role of limonoid compounds as neuroprotective agents” (The Johns Hopkins University, priority 2006, dated 2016).
# Experiments:
# [1] = system: human fetal neuronal cultures; assay: 6-OHDA toxicity, MTT viability, human fetal neuron cultures; assay type: cell-based; conditions: 6-OHDA 100 μM; Limonin 0.1-10 μM
# Experimental: (§1) FIG. 9 is a set of bar graphs showing the results of an MTT viability assay of human fetal neuron cultures in which the effect of (A) 3-NP (3 mM) or (B) 6-OHDA (100 μM) is tested alone or in the presence of a range of concentrations of Limonin (0.1-10 μM).
# (§2) Finally, we sought to determine if the compounds tested in rat neuronal cultures would also be effective on cultured human fetal neurons.
# [2] = system: mixed hippocampal cell cultures (NMDA excitotoxicity); assay: NMDA excitotoxicity, MTT viability, mixed hippocampal cultures; assay type: cell-based, rat; conditions: NMDA 100 μM
# Experimental: (§3) FIG. 8 is a set of bar graphs showing the results of an MTT viability assay of mixed hippocampal cell cultures in which the effect of (A) NMDA (100 μM) or (B) 6-OHDA (100 μM) is tested alone or in the presence of a range of concentrations of Limonin (0.1-10 μM).
# (§4) We also tested the ability of Limonin to protect against N-methyl-D-Aspartic Acid (NMDA) excitotoxicity, and 6-Hydroxydopamine (6-0HDA), a dopaminergic neurotoxin.
# [3] = system: hippocampal cultures (HIV-1 Tat toxicity); assay: HIV-1 Tat toxicity assay, MTT viability, mixed hippocampal cultures; assay type: cell-based, rat; conditions: Tat 500 nM; range of concentrations up to 10 μM
# Description: We sought to evaluate the protective efficacy of a number of modified terpenoid compounds against the against many different neurotoxins, ranging from the chemotoxic 6-OHDA, NMDA, 3-nitropropionic acid (3-NP), and viral proteins such as Tat and gp120. Thus, we established an in vitro neuroprotection assay using rat mixed hippocampal cultures, in which we evaluated the protective efficacy of neuroprotective compounds disclosed herein. The oxidative stressor 3-NP was used to elicit toxicity in the rat hippocampal cultures to mimic the oxidative damage, reactive oxygen species production and ensuing neurodegeneration resulting from HIV infection. Another measure of neurotoxicity which results from HIV infection was evaluated by exposure of the hippocampal cultures to HIV-1 Tat (Li et al (2005), Neurotox Res, 8(1-2): 119-134).
# Rat mixed hippocamal neuronal cultures were generated from freshly dissected rat hippocampi (embryonic day 18) in neurobasal media containing 5% fetal bovine serum and 2% B27 supplement. The cells were plated into 96 well plates at a density of 4×10^5 cells/mL and routinely used on days 11-14 following culturing. Cell viability was assessed with MTT [3-(4,5-dimethylthiazol-2-yl)-2,5-diphenyltetrazolium bromide] assay. The MTT assay is based on the ability of a mitochondrial dehydrogenase enzyme from viable cells to cleave the tetrazolium rings of the pale yellow MTT and form dark blue formazan crystals. See Mosmann (1983), J Immunol Methods, 65(1-2):55-63. These crystals are largely impermeable to cell membranes, and thus accumulate within healthy cells. The resultant formazan precipitates are solubilized with DMSO and read on a multiwell scanning spectrophotometer (ELISA reader). The number of surviving cells is directly proportional to the level of the formazan product created.
# Cultures were preincubated with GPI 1046 or Resveratrol for one hour prior to an 18 hour exposure to 3 mM 3-NP. […] The same neuroprotective compounds were evaluated for efficacy against HIV-1 Tat protein toxicity using the same 1 hour preincubation protocol.
# [4] = system: human fetal neuronal cultures; assay: 3-NP toxicity, MTT viability, human fetal neuron cultures; assay type: cell-based; conditions: 3-NP 3 mM; Limonin 0.1-10 μM
# Experimental: as §1, §2
# [5] = system: mixed hippocampal cell cultures (6-OHDA neurotoxicity); assay: 6-OHDA neurotoxicity, MTT viability, mixed hippocampal cultures; assay type: cell-based, rat; conditions: 6-OHDA 100 μM
# Experimental: as §3, §4
smiles,measurement,setting,value
CC1(C)O[C@H]2CC(=O)OC[C@]23[C@H]2CC[C@@]4(C)[C@H](c5ccoc5)OC(=O)[C@H]5O[C@]54[C@]2(C)C(=O)C[C@@H]13 [Limonin],protection of human fetal neuronal cultures against 6-OHDA (FIG. 9B),[1],dose-dependently protected
same,protection against NMDA at highest dose,[2]; Limonin 10 μM,complete protection
same,dose dependence of block of NMDA neurotoxicity (FIG. 8A),[2]; Limonin 0.1-10 μM,dose-dependently blocked the neurotoxicity
same,dose dependence of protection from HIV-1 Tat toxicity (FIG. 7),[3],dose dependently protected
same,protection of human fetal neuronal cultures against 3-NP (FIG. 9A),[4],dose-dependently protected
same,protection against 6-OHDA at highest dose,[5]; Limonin 10 μM,complete protection
same,dose dependence of block of 6-OHDA neurotoxicity (FIG. 8B),[5]; Limonin 0.1-10 μM,dose-dependently blocked the neurotoxicity
